In data set [1] the test system is lethal sepsis caused by peritonitis (cecal perforation). Description: Cecal ligation and puncture (CLP) peritonitis/sepsis: survival. Format: in vivo, Balb/C mice. As for the experimental part: Animal Experiments. Male 6-8 week old Balb/C mice (20-25 g) were purchased from Harlen Sprague-Dawley (Indianapolis, Ind.) and allowed to acclimate for 7 days housed at 25° C. on a 12 h light/dark cycle. Animals were randomly grouped (10 mice per group) and assigned to a specific experiment. All animal experiments were performed in accordance with the National Institutes of Health Guidelines under protocols approved by the Institutional Animal Care and Use Committee of North Shore University Hospital and New York University Medical School.
Cecal ligation and puncture (CLP). Cecal ligation and puncture (CLP) was performed as described by (Wichterman et al., J. Surg. Res. (1980) 29(2):189-201). Briefly, mice were anesthetized with 20 mg/ml xylazine intramuscularly at a dose of […], a midline incision was performed, and the cecum was isolated. A 6-0 prolene suture ligature was placed at a level 5.0 mm from the cecal tip away from the ileocecal valve. The ligated cecal stump was then punctured once with a 22-gauge needle, and stool extruded (1 mm) to ascertain patency of the puncture site. […] Mortality was recorded for up to 1 week after the procedure; survivors were followed for 3 weeks to ensure no late mortalities had occurred. […]

Another data set deals with Caco-2 human enterocytes. Description: Cytomix-induced hyperpermeability of Caco-2 monolayers (FD4 clearance). The following applies: 48 h incubation with cytomix (IFN-γ, IL-1β, TNF-α); both of the highest concentrations; P<0.001. Format: cell-based. Here is the method:
To test for the effect of ethyl pyruvate on a stabilizing calcium salt solution (REPS) in a cytokine-induced intestinal epithelial hyperpermeability condition, an in vitro model of intestinal epithelial injury due to inflammation, such as might occur in cases of inflammatory bowel disease (i.e., Crohn's disease or ulcerative colitis) was used.
Exemplary materials and methods include the following, while minor modifications can be made: Caco-2 human enterocytes (10^5 cells/well) were plated on permeable filters in 12-well Transwell bicameral chambers (COSTAR, Corning, N.Y.) and fed biweekly. Permeability studies were carried out using confluent monolayers between 21-28 d after seeding. The permeability probe was FITC-labeled dextran (4400 Da; FD4). A sterile stock solution of FD4 (25 mg/ml) was prepared by dissolving the compound in HEPES-buffered DMEM complete medium (pH 6.8) and passing it through a filter ([…] pore size). For permeability studies, the medium was aspirated from the apical and basolateral sides of the Transwell chambers. FD4 solution (200 μl) was added to the apical compartments. […] (Menconi et al., Am. J. Physiol. (1997) 272:G1007-G1021.) The permeability of monolayers was expressed as a clearance (C), which was calculated as previously described. […]

The next data set concerns p38 MAPK. Description: LPS-induced p38 MAPK phosphorylation in RAW264.7 cells (western blot). Format: cell-based, murine. Here is the method: (a) RAW264.7 cells were stimulated with LPS in the presence of the indicated concentrations of ethyl pyruvate. The activation of NF-kB was analyzed by EMSA at 15 min and 4 hours using a ^32P-labeled NF-B probe. Ethyl pyruvate suppressed activation of NF-B in an ethyl pyruvate concentration dependent fashion. The experiment was repeated 3 times. (b) Supershift and competition studies. Nuclear extract of macrophages stimulated with LPS and incubated with antibody against p65-Rel to induce specific supershift of NF-κB complex. Nuclear extracts were incubated with 100-fold molar excess of unlabeled (cold) NP-κB or HIF-1 probe for competition analysis. (c) RAW264.7 cells were stimulated with LPS in the presence of the indicated concentration of ethyl pyruvate. The phosphorylation of p38MAPK was analyzed by western blot using antibodies against phosphorylated (thr180/tyr182) p38MAPK (in accordance with the manufacturer (New England Biolabs, Inc Cat. # 9210, Beverly, Mass.). (d) The total amount of p38 MAPK is visualized by western blot. Ethyl pyruvate prevents the phosphorylation of p38MAPK in macrophage cultures without affecting the intracellular level of total p38MAPK; and
Cell Culture. […]

For `CCOC(=O)C(C)=O` [ethyl pyruvate], the survival in data set [1] (40 mg/kg i.p. beginning 24 hours after onset of peritonitis, three weeks of monitoring, vehicle 5/17, P<0.005) was 14/17. Also, the protection against death entry in data set [1] (lower ethyl pyruvate doses, beginning 24 hours after onset of peritonitis) is reported as “failed to confer significant protection against death”. Besides, in the data set with Caco-2 human enterocytes, the “cytomix-induced hyperpermeability of Caco-2 monolayers (FD4 clearance)” value is “significantly decreased cytomix-induced hyperpermeability”. Further, in the data set on p38 MAPK (antibodies against phosphorylated (thr180/tyr182) p38MAPK), the “LPS-induced phosphorylation of p38 MAPK” value was “prevented the LPS-induced phosphorylation and subsequent activation of p38 MAPK”. Besides, in the data set on p38 MAPK (specificity control, western blot), the “total levels of p38 MAPK” value is on record as “did not significantly influence the total levels of p38 MAPK”.

The record behind these values is patent US6943190B2, “Method of using pyruvate and/or its derivatives for the treatment of cytokine-mediated inflammatory conditions” (University of Pittsburgh-of the Commonwealth System of …, priority 2001, dated 2005).
